In US20170273922A1, “UREA AND BIS-UREA BASED COMPOUNDS AND ANALOGUES THEREOF USEFUL IN THE TREATMENT OF ANDROGEN RECEPTOR MEDIATED DISEASES OR DISORDERS” (THE ROYAL INSTITUTION FOR THE ADVACEMENT OF LEARNING/MCGILL …, priority 2014, published 2017):
Residue numbers refer to the chain shown, from its start. “Also recorded” adds a separate entry of the source.

How the values were obtained:
[1] = target: T1, H874Y mutant of full-length AR (Homo sapiens, UniProt P10275, H875Y); assay: AR H874Y mutant PSA-luc reporter assay in PC3 cells; format: cell-based; details: for inhibition of DHT-induced transactivation of H874Y mutant AR (PSA-luc): 10 nM DHT, PC3 cells, 24 h
T1 sequence (P10275 1-920 H875Y): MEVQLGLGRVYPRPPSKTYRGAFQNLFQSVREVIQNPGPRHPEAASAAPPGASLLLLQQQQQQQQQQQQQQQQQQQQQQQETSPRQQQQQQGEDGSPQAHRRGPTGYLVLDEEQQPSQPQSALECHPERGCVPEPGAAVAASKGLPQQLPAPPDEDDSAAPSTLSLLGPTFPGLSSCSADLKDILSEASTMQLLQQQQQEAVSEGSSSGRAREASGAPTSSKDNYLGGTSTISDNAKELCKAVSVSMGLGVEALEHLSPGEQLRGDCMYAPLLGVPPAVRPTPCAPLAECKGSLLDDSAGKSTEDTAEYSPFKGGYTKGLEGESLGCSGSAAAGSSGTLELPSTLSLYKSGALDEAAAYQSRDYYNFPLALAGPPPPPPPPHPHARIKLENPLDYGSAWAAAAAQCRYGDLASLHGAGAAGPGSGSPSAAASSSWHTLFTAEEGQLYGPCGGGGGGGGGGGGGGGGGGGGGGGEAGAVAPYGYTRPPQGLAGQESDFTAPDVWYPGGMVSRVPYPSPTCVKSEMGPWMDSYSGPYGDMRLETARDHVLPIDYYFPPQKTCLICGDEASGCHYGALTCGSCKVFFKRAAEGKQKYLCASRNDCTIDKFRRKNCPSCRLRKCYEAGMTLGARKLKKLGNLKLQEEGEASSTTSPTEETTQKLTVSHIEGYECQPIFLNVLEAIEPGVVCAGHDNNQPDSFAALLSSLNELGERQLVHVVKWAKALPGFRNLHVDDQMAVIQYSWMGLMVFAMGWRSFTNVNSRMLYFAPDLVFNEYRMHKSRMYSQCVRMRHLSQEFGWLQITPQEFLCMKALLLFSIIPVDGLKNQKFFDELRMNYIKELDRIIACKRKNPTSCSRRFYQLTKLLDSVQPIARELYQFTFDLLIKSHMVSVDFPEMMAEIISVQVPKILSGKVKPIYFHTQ

[2] = target: T2, T877A mutant of full-length AR (Homo sapiens, UniProt P10275, T878A); assay: AR T877A mutant PSA-luc reporter assay in PC3 cells; format: cell-based; details: 24 h; for inhibition of DHT-induced transactivation of T877A mutant AR (PSA-luc): 10 nM DHT; for agonism of AR T877A mutant (PSA-luc): absence of DHT
T2 sequence (P10275 1-920 T878A): T1 sequence (P10275 1-920 H875Y) with Y875H, T878A
Excerpt: ENZ, enzalutamide; Bic, bicalutamide; OHF, hydroxyflutamide.

[3] = test system: DU145 cells; assay: MTT assay (cytotoxicity), DU145 cells; format: cell-based; details: DU145 cells, 72 h, Table 4.2
Summary of the method: (§1)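 Viable cell number was determined by MTT after cells in RPMI 1640 plus 10% FBS had been treated for 72 h with compounds at set concentrations, DMSO serving as vehicle control.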

[4] = test system: LNCaP cells; assay: MTT assay (cytotoxicity), LNCaP cells; format: cell-based; details: LNCaP cells, 72 h, Table 4.2
Summary of the method: as §1

[5] = test system: PSA expression in LNCaP cells; assay: Western blot of PSA expression in LNCaP cells; format: cell-based; details: 24 h; for suppression of PSA expression in LNCaP cells (FIG. 19C): whole medium
Description: FIG. 11: A) Compounds 562 and 746 suppressed DHT-induced AR activation in LNCaP cells which endogenously express the T877A mutant; B) Western blot analysis indicated compound 746 at 2.5 μM suppressed DHT-induced expression of the PSA in LNCaP cells. […] ENZ, enzalutamide; BIC, bicalutamide; EPI, EPI-001.
Experiments were in duplicate and repeated three times. […] LNCaP cells in whole medium were exposed to DMSO vehicle control or compounds for 24 h.

[6] = test system: endogenous AR-Vs in 22Rv1 cells; assay: PSA-luc reporter assay in androgen-starved 22Rv1 cells (endogenous LBD-truncated AR variants); details: androgen-starved 3 days, 24 h exposure
Description: NT, LNCaP cells were transiently transfected with pIRES vector, PSA-luc and pRL-TK. […] Cells were then transiently transfected with PSA-Luc and pRL-TK and exposed to DMSO or compounds for 24 h, in triplicate. NT, not transfected with PSA-luc.
The ARs were probed by N-terminal directed AR antibody (N20, Santa Cruz); B) The 22Rv1 cells were androgen-starved (in phenol red-free medium+10% CS-FBS) for 3 days to ensure the full-length AR expressed in 22Rv1 are not activated. The 22Rv1 cells were subsequently co-transfected with PSA-luc and pRL-TK plasmids. […] Cells in phenol red-free medium+10% CS-FBS were exposed to DMSO or compounds for 24 h and harvested for Western blot analysis.
The cells were androgen-starved for 3 days and transfected with PSA-Luc and pRL-TK plasmids. NT, cells were transfected with empty vector. Cells were exposed to vehicle control or compounds for 24 h.

[7] = MTT assay (cytotoxicity), LNCaP cells; format: cell-based; details: human, LNCaP cells
Summary of the method: as §1

| Compound | agonism of AR H874Y mutant [1] | inhibition of DHT-induced transactivation of H874Y mutant AR (PSA-luc) [1] | inhibition of DHT-induced transactivation of T877A mutant AR (PSA-luc) [2] | agonism of AR T877A mutant (PSA-luc) [2] | IC50 [3] | IC50 [4] | suppression of PSA expression in LNCaP cells (FIG. 19C) [5] | activity against constitutive activation of endogenous AR-Vs in 22Rv1 cells (PSA-luc) [6] | IC50 at 72 h ([7]; 72 h, Table 4.1) | suppression of PSA expression in LNCaP cells (FIG. 11B) ([5]; 10 nM DHT) | IC50 at 72 h ([7]; 72 h, Table 2.1) | suppression of DHT-induced expression of the PSA in LNCaP cells ([5]; 2.5 μM, 10 nM DHT) | IC50 at 72 h ([7]; 72 h treatment, Table 6.1) |
| --- | --- | --- | --- | --- | --- | --- | --- | --- | --- | --- | --- | --- | --- |
| N#Cc1ccc(NC(=O)Nc2cccc(C(F)(F)F)c2)cc1Cl [Compound 492] | non-agonist | dose-dependently suppressed; also recorded: dose-dependently inhibit | dose-dependently suppressed; also recorded: dose-dependently inhibit | non-agonist | 5.1 µM | 0.8 µM |  |  |  |  |  |  |  |
| O=C(Nc1cccc(C(F)(F)F)c1)Nc1ccc([N+](=O)[O-])c(C(F)(F)F)c1 [Compound 442] | non-agonist | dose-dependently suppressed; also recorded: dose-dependently inhibit | dose-dependently suppressed; also recorded: dose-dependently inhibit | non-agonist | 1.5 µM | 0.5 µM | dose-dependently suppressed | significantly suppressed; also recorded: active |  |  |  |  |  |
| N#Cc1ccc(NC(=O)Nc2cccc(C(F)(F)F)c2)cc1C(F)(F)F [Compound 467] | non-agonist | dose-dependently suppressed; also recorded: dose-dependently inhibit | dose-dependently suppressed; also recorded: dose-dependently inhibit | non-agonist | 1.6 µM | 0.9 µM | dose-dependently suppressed | significantly suppressed; also recorded: active |  |  |  |  |  |
| O=C(Nc1ccc(Br)nc1)Nc1cc(C(F)(F)F)cc(C(F)(F)F)c1 [Compound 566] |  |  |  |  |  |  |  | active; also recorded: greater inhibitory activity than EPI-001 | 0.8 µM |  |  |  |  |
| O=C(N/C=C/c1cccc(C(F)(F)F)c1)Nc1ccncn1 [Compound 562] |  | inhibit | inhibit |  |  |  |  | remain active; also recorded: greater inhibitory activity than EPI-001 |  | suppressed | 4.4 µM |  |  |
| O=C(Nc1cccc(C(F)(F)F)c1)Nc1ccc(NC(=O)c2ccccc2F)c(C(F)(F)F)c1 [Compound 746] |  | inhibit | inhibit |  |  |  |  | remain active; also recorded: greater inhibitory activity than EPI-001 |  | suppressed |  | suppressed | 1 µM |
